Measured values published in paper PMC4240912, “Multifaceted interplay between lipophilicity, protein interaction and luminescence parameters of non-intercalative ruthenium(II) polypyridyl complexes controlling cellular imaging and cytotoxic properties” (Journal of Biological Inorganic Chemistry, 2014).

Key:
[1] = target: human serum albumin (HSA) (Homo sapiens, UniProt P02768); assay: Luminescence quantum yield and lifetime in the presence of HSA
Experimental: The protein stock solution was prepared by dissolving human serum albumin (HSA) in water and its concentration was determined spectrophotometrically from the molar absorptivity of 4.4 × 10^4 cm^−1 M^−1 at 280 nm. The emission spectra were recorded between 305 and 500 nm upon excitation at 295 nm resulting in selective excitation of tryptophan residue of HSA. The average of three scans was subjected to smoothing and the fluorescence intensities were corrected due to dilution effects. Protein-binding experiments were conducted by measuring fluorescence spectra of protein solution (1 μM) in the presence of different amounts of ruthenium compounds (0–10 μM) in PBS buffer pH 7.4 at 37 °C. Ru–protein solutions were allowed to incubate for 5 min before the emission spectra were recorded. The quantum yield and lifetime of luminescence for ruthenium complexes in the present of HSA (1 μM) was measured using the same procedure as described for ruthenium complexes alone (the HSA/Ru-complex ratio is given in the figure caption).

4T1 cells = assay: Ruthenium uptake / cell luminescence measured by flow cytometry; type: cell-based; details: 4T1, [Ru-complex] = 2 µM, 24 h, medium without or with serum (2 %)
Experimental: 4T1 cells were seeded in a 24-well plate with a density of 2 × 10^5 cells per cm^2. 24 h after the seeding Ru(II) compounds were added at 2 µM concentration and incubated for 24 h in medium with or without serum (2 %). Then cells were washed with PBS, detached by trypsin treatment and analyzed by BDLSR cytometer with an excitation wavelength of 488 nm and an emission wavelength of 575 ± 13 nm.

Sequence of human serum albumin (HSA) (P02768 25-609): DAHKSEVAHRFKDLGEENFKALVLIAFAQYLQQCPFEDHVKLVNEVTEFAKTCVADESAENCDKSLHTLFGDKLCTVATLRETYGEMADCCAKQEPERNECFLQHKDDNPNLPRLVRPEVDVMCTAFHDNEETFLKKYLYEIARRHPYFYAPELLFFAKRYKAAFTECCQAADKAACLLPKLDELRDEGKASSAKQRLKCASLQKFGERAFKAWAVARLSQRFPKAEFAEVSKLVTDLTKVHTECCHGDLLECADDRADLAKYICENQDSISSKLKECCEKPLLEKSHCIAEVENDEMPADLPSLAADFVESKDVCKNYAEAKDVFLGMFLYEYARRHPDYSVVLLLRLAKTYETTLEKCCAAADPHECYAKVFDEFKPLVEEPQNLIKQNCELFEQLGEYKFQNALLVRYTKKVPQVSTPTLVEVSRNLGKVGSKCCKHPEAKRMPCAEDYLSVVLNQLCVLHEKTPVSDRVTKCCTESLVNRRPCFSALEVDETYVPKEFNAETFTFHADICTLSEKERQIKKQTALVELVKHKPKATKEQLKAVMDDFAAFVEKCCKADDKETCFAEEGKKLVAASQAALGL

[Ru(dip)2(1,3-dicyclohexyl-1-[4-carbonyl-(4′-methyl-2,2′-bipyridyl)]-urea)]Cl2 [[Ru(dip)2(CH3bpy-DCU)]^2+]
φ, quantum yield of luminescence ([1]; PBS pH 7.4, [HSA]/[Ru] = 1): 0.0472
φ, quantum yield of luminescence ([1]; PBS pH 7.4, in the absence of HSA): 0.0076
luminescence of cells (flow cytometry) (4T1 cells): highest luminescence
